Each structure is given as a SMILES string.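 Cultured in 96-well plates, cells were exposed to test compound for 48 hours across five concentrations. TGI: concentration producing complete growth inhibition.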

The subject of the first assay is TK-10 renal. Description: inhibition of tumour cell growth, NCI panel, 48 h.
For `C=CC[C@@H](N)C(=O)N(C)[C@@H](C)[C@@H](O)c1ccccc1`, the TGI is greater than 100 µM.

On to `N#Cc1sc2c(c1OC(=O)c1ccccc1)c(=O)n(-c1ccccc1)c(=S)n2-c1ccccc1`, for which the TGI was greater than 100 µM.

On to `O=C(NC1=C(Cl)C(=O)c2ccccc2C1=O)c1ccc(F)cc1`, for which the TGI amounted to 14.6 µM.

A further assay relates to MDA-MB-231 breast. Nature of the assay: inhibition of tumour cell growth, NCI panel, 48 h.
As for `COC(=O)[C@@H]1[C@H](OC(C)=O)CCC2[C@@]3(C[C@@H](c4ccoc4)O[C@@H]3OC)[C@H](C)CC[C@]21C(=O)OC` (stereo partly specified), the TGI was greater than 25 µM.

On to `Cc1n[nH]c(=O)n1N1C(=O)CCCC1=O`, for which the TGI was greater than 100 µM.

The molecule `CC(C)(C)OC(=O)NC(Cc1ccccc1)OCc1ccccc1` (stereo unspecified) had a TGI of 30.2 µM.

With `CN1c2ccccc2C(=O)NC12CCN(CCCC(=O)c1ccc(F)cc1)CC2`, the TGI is greater than 100 µM.

Take `NC(N)=NCC[C@H](NC(=O)OCCCCCn1ccc(=O)[nH]c1=O)C(=O)O`: the TGI is greater than 100 µM.

The molecule `O=C(c1ccccc1)c1ccc2nc(-c3c(Cl)c(Cl)c(Cl)c(Cl)c3C(=O)N/N=C/c3ccc(Cl)cc3)[nH]c2c1` had a TGI of 61.4 µM.

Regarding `CCc1nn(CN2CCOCC2)c(=S)n1/N=C/c1ccc(-c2ccc(Cl)cc2)o1`, the TGI is greater than 100 µM.

The molecule `COc1cc(C2SCC(=O)N2c2cccc(Cl)c2)cc(OC)c1OC` (stereo unspecified) came in with a TGI greater than 100 µM.

On to `CC(=O)C1C(=O)C(=O)N(c2cccc([N+](=O)[O-])c2)C1=O` (stereo unspecified), for which the TGI was greater than 100 µM.

`CCN(CC)CC1CCCCN1CC(=O)N1c2ccccc2C(=O)Nc2cccnc21` (stereo unspecified) came in with a TGI of 75.8 µM.

`C=CC[C@@H](N)C(=O)N(C)[C@@H](C)[C@@H](O)c1ccccc1` registered a TGI greater than 100 µM.

Regarding `N#Cc1sc2c(c1OC(=O)c1ccccc1)c(=O)n(-c1ccccc1)c(=S)n2-c1ccccc1`, the TGI worked out at 59.2 µM.

The molecule `O=C(NC1=C(Cl)C(=O)c2ccccc2C1=O)c1ccc(F)cc1` had a TGI of 18.9 µM.

The subject of the next assay is HOP-62 NSCLC. Nature of the assay: inhibition of tumour cell growth, NCI panel, 48 h.
`Cc1n[nH]c(=O)n1N1C(=O)CCCC1=O` yielded a TGI greater than 100 µM.

For the molecule `CC(C)(C)OC(=O)NC(Cc1ccccc1)OCc1ccccc1` (stereo unspecified), the TGI was found to be 37.8 µM.

As to `CN1c2ccccc2C(=O)NC12CCN(CCCC(=O)c1ccc(F)cc1)CC2`, the TGI was greater than 100 µM.

`NC(N)=NCC[C@H](NC(=O)OCCCCCn1ccc(=O)[nH]c1=O)C(=O)O` registered a TGI greater than 100 µM.

Regarding `O=C(c1ccccc1)c1ccc2nc(-c3c(Cl)c(Cl)c(Cl)c(Cl)c3C(=O)N/N=C/c3ccc(Cl)cc3)[nH]c2c1`, the TGI was greater than 100 µM.

For `CCc1nn(CN2CCOCC2)c(=S)n1/N=C/c1ccc(-c2ccc(Cl)cc2)o1`, the TGI is greater than 100 µM.

Molecule `CCOC(=O)c1c(C)nc2c1c(CN(C)C)c(O)c1[nH]c(C)c(C)nc12` yielded a TGI of 51 µM.

As for `CC(=O)C1C(=O)C(=O)N(c2cccc([N+](=O)[O-])c2)C1=O` (stereo unspecified), the TGI was greater than 100 µM.

For `CCN(CC)CC1CCCCN1CC(=O)N1c2ccccc2C(=O)Nc2cccnc21` (stereo unspecified), the TGI is greater than 100 µM.

`C=CC[C@@H](N)C(=O)N(C)[C@@H](C)[C@@H](O)c1ccccc1` displayed a TGI greater than 100 µM.

In turn, `N#Cc1sc2c(c1OC(=O)c1ccccc1)c(=O)n(-c1ccccc1)c(=S)n2-c1ccccc1` registered a TGI of 46.5 µM.

`O=C(NC1=C(Cl)C(=O)c2ccccc2C1=O)c1ccc(F)cc1` had a TGI of 26.8 µM.

The test system of a further assay is LOX IMVI melanoma. Nature of the assay: inhibition of tumour cell growth, NCI panel, 48 h.
For the molecule `COC(=O)[C@@H]1[C@H](OC(C)=O)CCC2[C@@]3(C[C@@H](c4ccoc4)O[C@@H]3OC)[C@H](C)CC[C@]21C(=O)OC` (stereo partly specified), the TGI is greater than 25 µM.

`NC(N)=NCC[C@H](NC(=O)OCCCCCn1ccc(=O)[nH]c1=O)C(=O)O`: the TGI is greater than 100 µM.

`O=C(c1ccccc1)c1ccc2nc(-c3c(Cl)c(Cl)c(Cl)c(Cl)c3C(=O)N/N=C/c3ccc(Cl)cc3)[nH]c2c1` had a TGI greater than 100 µM.

The molecule `CCc1nn(CN2CCOCC2)c(=S)n1/N=C/c1ccc(-c2ccc(Cl)cc2)o1` came in with a TGI greater than 100 µM.

As for `COc1cc(C2SCC(=O)N2c2cccc(Cl)c2)cc(OC)c1OC` (stereo unspecified), the TGI was greater than 100 µM.

In the case of `CCOC(=O)c1c(C)nc2c1c(CN(C)C)c(O)c1[nH]c(C)c(C)nc12`, the TGI was found to be 37.8 µM.

Take `CC(=O)C1C(=O)C(=O)N(c2cccc([N+](=O)[O-])c2)C1=O` (stereo unspecified): the TGI is greater than 100 µM.

Turning to `CCN(CC)CC1CCCCN1CC(=O)N1c2ccccc2C(=O)Nc2cccnc21` (stereo unspecified), the TGI stood at 57.2 µM.

`C=CC[C@@H](N)C(=O)N(C)[C@@H](C)[C@@H](O)c1ccccc1`: the TGI is greater than 100 µM.

Turning to `N#Cc1sc2c(c1OC(=O)c1ccccc1)c(=O)n(-c1ccccc1)c(=S)n2-c1ccccc1`, the TGI was determined as 51.7 µM.

Another assay deals with BT-549 breast. Nature of the assay: inhibition of tumour cell growth, NCI panel, 48 h.
`COC(=O)[C@@H]1[C@H](OC(C)=O)CCC2[C@@]3(C[C@@H](c4ccoc4)O[C@@H]3OC)[C@H](C)CC[C@]21C(=O)OC` (stereo partly specified) returned a TGI greater than 25 µM.

`Cc1n[nH]c(=O)n1N1C(=O)CCCC1=O` showed a TGI greater than 100 µM.

For `CC(C)(C)OC(=O)NC(Cc1ccccc1)OCc1ccccc1` (stereo unspecified), the TGI was found to be 55.2 µM.

`CN1c2ccccc2C(=O)NC12CCN(CCCC(=O)c1ccc(F)cc1)CC2` showed a TGI greater than 100 µM.

Turning to `NC(N)=NCC[C@H](NC(=O)OCCCCCn1ccc(=O)[nH]c1=O)C(=O)O`, the TGI was greater than 100 µM.

With `O=C(c1ccccc1)c1ccc2nc(-c3c(Cl)c(Cl)c(Cl)c(Cl)c3C(=O)N/N=C/c3ccc(Cl)cc3)[nH]c2c1`, the TGI was greater than 100 µM.

Take `CCc1nn(CN2CCOCC2)c(=S)n1/N=C/c1ccc(-c2ccc(Cl)cc2)o1`: the TGI is greater than 100 µM.

Take `COc1cc(C2SCC(=O)N2c2cccc(Cl)c2)cc(OC)c1OC` (stereo unspecified): the TGI was greater than 100 µM.

In turn, `CCOC(=O)c1c(C)nc2c1c(CN(C)C)c(O)c1[nH]c(C)c(C)nc12` registered a TGI of 76 µM.

Consider `CC(=O)C1C(=O)C(=O)N(c2cccc([N+](=O)[O-])c2)C1=O` (stereo unspecified), for which the TGI is greater than 100 µM.

With `C=CC[C@@H](N)C(=O)N(C)[C@@H](C)[C@@H](O)c1ccccc1`, the TGI was greater than 100 µM.

In turn, `N#Cc1sc2c(c1OC(=O)c1ccccc1)c(=O)n(-c1ccccc1)c(=S)n2-c1ccccc1` came in with a TGI greater than 100 µM.

`O=C(NC1=C(Cl)C(=O)c2ccccc2C1=O)c1ccc(F)cc1` returned a TGI of 14.7 µM.

For the origin of these results see PubChem BioAssay (NCI).
